Experimental data as given in patent US11219621B2, “Methods for treating immunodeficiency disease” (X4 Pharmaceuticals, Inc., priority 2015, dated 2022).

Key:
[1] = test system: granulocyte-macrophage (CFU-GM), erythroid (BFU-E) and multipotential (CFU-GEMM) progenitor cells; assay: Progenitor/stem cell mobilization in mice after single subcutaneous injection; type: in vivo, C3H/HeJ mice; conditions: 5 mg/kg s.c.
Experimental: All experiments were performed in […] mice. […] The progenitors were stimulated to form colonies in vitro with the combination of 1 U/mL rhu EPO, 50 ng/mL rmu SLF, 5% vol/vol pokeweed mitogen mouse spleen cell conditioned medium (PWMSCM), and 0.1 mM hemin. Plates were scored 7 days after incubation at 37° C., 5% CO2, lowered […] and in a humidified chamber.
In the first experiment (data shown in Table 6), mice received a dose of 5 mg/kg- and the number of progenitors in the circulating blood was measured at various time points (0.25, 0.5, 1, 2, 6 and 24 hours).

[2] = test system: granulocyte-macrophage (CFU-GM), erythroid (BFU-E) and multipotential (CFU-GEMM) progenitor cells; assay: as above; type: in vivo, C3H/HeJ mice; conditions: Table 8; progenitor cells per mL of blood; 5 mg/kg s.c.; @ - 60″ (1 h)
E343X CXCR4 variant = molecular target: T1, E343X CXCR4 variant (Homo sapiens, UniProt P61073); conditions: E343X variant in Cf2Th; read-out: EC50 for SDF-1α, calcium flux; cited from earlier work
T1 construct: expressed in transfected cells; host or cells: Cf2Th (canine thymus cell line lacking CXCR4)

wild type CXCR4 = molecular target: T2, wild type CXCR4 (Homo sapiens, UniProt P61073); conditions: wild type CXCR4 in Cf2Th; read-out: EC50 for SDF-1α, calcium flux; cited from earlier work
T2 construct: expressed in transfected cells; host or cells: Cf2Th (canine thymus cell line lacking CXCR4)

R334X CXCR4 variant = molecular target: T3, R334X CXCR4 variant (Homo sapiens, UniProt P61073); conditions: R334X variant in Cf2Th; read-out: EC50 for SDF-1α, calcium flux; cited from earlier work
T3 construct: expressed in transfected cells; host or cells: Cf2Th (canine thymus cell line lacking CXCR4)

[3] = Table 8, @ - 60″ (1 h), vs control
[4] = Table 8, progenitor cells per mL of blood, @ - 60″ (1 h)
[5] = comparison, AMD3100 at 1 hour, X4P-001 peak over 0.25-2 hours

T2 sequence (P61073 whole entry): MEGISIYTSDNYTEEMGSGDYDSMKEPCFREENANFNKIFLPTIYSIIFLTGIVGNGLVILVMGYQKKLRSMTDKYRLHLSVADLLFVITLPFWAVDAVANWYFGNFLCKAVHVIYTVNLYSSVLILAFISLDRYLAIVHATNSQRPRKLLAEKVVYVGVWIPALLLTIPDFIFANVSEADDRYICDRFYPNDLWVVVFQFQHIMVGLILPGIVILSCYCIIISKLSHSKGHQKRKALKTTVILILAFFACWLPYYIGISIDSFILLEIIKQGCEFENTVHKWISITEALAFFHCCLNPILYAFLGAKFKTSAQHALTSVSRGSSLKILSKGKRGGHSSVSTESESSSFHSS

Compound	BFU (BFU-E), Fold Chg [1, 3]	GEMM (CFU-GEMM), Fold Chg [1, 3]	GM (CFU-GM), Fold Chg [1, 3]	Nucleated Cellularity PBL-LD, Fold Chg [1, 3]	GEMM (CFU-GEMM), Mean [1, 4]	GM (CFU-GM), Mean [1, 4]	Nucleated Cellularity PBL-LD, Mean ([1]; Table 8 comparison, @ - 60″ (1 h))	Maximum fold-increase in BFU-E [1, 5]	Maximum fold-increase in CFU-GEMM [1, 5]	Maximum fold-increase in CFU-GM [1, 5]	BFU (BFU-E), Mean [2]	EC50 (E343X CXCR4 variant)	EC50 (wild type CXCR4)	EC50 (R334X CXCR4 variant)
c1cc(CN2CCCNCCNCCCNCC2)ccc1CN1CCCNCCNCCCNCC1 [AMD3100, plerixafor, reference compound]	3.12 fold	4.35 fold	9.11 fold	1.62 fold	138.5	1950.3	1.008e+07 mL⁻¹	3.12 fold	4.35 fold	9.11 fold	207.7			
SDF-1α												15.3 nM	13.6 nM	11.3 nM
